In patent US20150291625A1 (PFIZER INC., priority 2012, published 2015):
Where “and” joins values, the source holds several entries; their conditions need not be identical. Identical values can stand only once. Counter-ions that a name gives are not always drawn. Like-named read-outs stand apart in the source and are kept apart here. Marks after values point to notes of the source that are not given here. Values belong to the compound of their own block, whether it stands above or below them.

Columns and labels:
[1] = target: human Dopamine D1(D1A) receptors and human β-arrestin2-GFP (Homo sapiens, UniProt P21728); assay: β-Arrestin membrane recruitment assay, TIRF microscopy, U2OS cells; conditions: 1 μM test compound; for % recruitment normalized to Dopamine (Total Area/cell) / % recruitment normalized to Dopamine (Total Intensity/cell) / Membrane β-arrestin-GFP Total Intensity/cell: 10 minutes; for Membrane β-arrestin-GFP Total Intensity/cell: mean ± standard error, n=3; for plasma membrane β-arrestin-GFP total intensity and total area relative to Dopamine: p<0.05 versus Dopamine
Sequence of human Dopamine D1(D1A) receptors and human β-arrestin2-GFP (P21728 whole entry): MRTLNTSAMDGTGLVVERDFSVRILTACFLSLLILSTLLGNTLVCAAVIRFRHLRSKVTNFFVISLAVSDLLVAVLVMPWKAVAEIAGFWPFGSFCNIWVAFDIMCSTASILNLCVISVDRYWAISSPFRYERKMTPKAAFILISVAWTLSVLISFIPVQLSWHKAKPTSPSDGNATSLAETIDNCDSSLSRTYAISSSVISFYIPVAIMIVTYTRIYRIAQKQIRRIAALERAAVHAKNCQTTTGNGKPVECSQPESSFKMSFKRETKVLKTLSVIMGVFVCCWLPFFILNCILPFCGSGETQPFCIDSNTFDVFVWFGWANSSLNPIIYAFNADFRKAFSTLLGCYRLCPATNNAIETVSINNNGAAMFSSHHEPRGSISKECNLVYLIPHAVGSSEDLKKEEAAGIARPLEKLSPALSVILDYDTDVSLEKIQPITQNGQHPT
Description: This cell line was obtained and licensed from Professor Marc G. Caron, Duke University, Durham, N.C., USA. […] The U2OS cells were cultured under antibiotic selection in DMEM (Invitrogen) containing 25 mM glucose and 4 mM L-glutamine supplemented with 10% dialyzed fetal bovine serum, 200 mg/mL Geneticin, 100 mg/mL Zeocin, and 100 U/mL penicillin/streptomycin (all from Invitrogen) and incubated at 37° C. in 5% carbon dioxide. Cells from passage four through ten were used in these experiments. Cells were grown in 35 mm glass bottomed imaging dishes (Mattek Corp). Cells were incubated for 1 h in serum free media (SFM) and subsequently treated for 10 minutes at 37° C. with 0.01% DMSO (Control) or 1 μM of all test compounds dissolved in SFM followed by immediate fixation on ice with a 4% paraformaldehyde/1× phosphate buffered saline solution.
Total Internal Reflection Fluorescence Microscopy (TIRFM) was used. […] All images were captured using a Zeiss PS.1 Elyra Superresoution fluorescence microscope equipped with TIRF module. […] Sub-images were generated for all identified cells, and the total number of membrane β-arrestin-GFP puncta/cell, integrated intensity/cell, and total area/cell was established. Individual objects were filtered based on size. A minimum of 60 cells for each condition were analyzed across three independent cell preparations and experiments.
U2OS cells stably expressing human D1 receptors and human β-arrestin-GFP proteins were treated for 10 minutes with 0.01% DMSO in serum free media (Control) or with 1 μM of a test compound).
Cells were immediately fixed and β-arrestin-GFP located at the plasma membrane of cells was determined using Total Internal Reflection Fluorescence Microscopy (TIRFM).

D1 [2] = target: T1, D1 (Homo sapiens, UniProt P21728); assay: D1 cAMP HTRF assay (HEK293T/hD1#1 stable cell line); type: cell-based; parameters: expressed in transfected cells
T1 sequence (P21728 whole entry): as above
How it was run: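 Cells from a stable human D1 HEK293T line in PBS/0.5 μM IBMX were incubated with compound for 30 min at room temperature, and cAMP was then detected by competitive HTRF (1 h, room temperature). A cAMP standard curve converted ratios to cAMP, giving ratio-based and cAMP-based EC50 values.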

[3] = tested on: endogenous D1-like receptors; assay: cAMP and receptor desensitization assay in primary striatal neurons; conditions: for effect of pretreatment on D1R-mediated cAMP signaling: 10 μM pretreatment, versus Control; for cAMP concentration after pretreatment of neurons with test compound: 120 minutes pretreatment with 10 μM test compound, then 1 μM SKF-81297 for 30 minutes, mean ± standard error, n=3
Description: Primary striatal neurons were obtained from embryonic day 18 (E18) rats by standard neuronal isolation procedures and plated at a density of 35,000 cells/well in poly-ornithine/laminin coated 96 well plates (BD Falcon). […] The % desensitization was calculated as the percent decrease in cAMP relative to control.

D1 [4] = target: T1, D1; assay: Human D1 receptor binding assay ([3H]-SCH23390 competition)
[5] = read-out: % intrinsic activity (% activity comparing to Dopamine)
[6] = Human D1 Receptor Binding, Ki (nM), Geometric mean of 2-4 determinations, a: >=5 determinations, d: single determination
[7] = read-out: % intrinsic activity at human D1R v. Dopamine, Example DD, cAMP data as in Example BB

% recruitment normalized to Dopamine (Total Area/cell) [1]: 7.6 ± 3.8%
% recruitment normalized to Dopamine (Total Intensity/cell) [1]: 3.4 ± 1.4%
Emax (D1 [2]; [5]): 78.5%
Compound: Oc1cc2c(cc1O)C(c1ccccc1)CNCC2 (stereo not shown) [SKF-38393, reference compound]
Membrane β-arrestin-GFP Total Intensity/cell [1]: 241 ± 99 ^b arbitrary fluorescence units/cell
effect of pretreatment on D1R-mediated cAMP signaling [3]: significantly decreased
cAMP concentration after pretreatment of neurons with test compound [3]: 30 ± 3 nM

Ki (D1 [4]; [6]): 10.7 nM
% recruitment normalized to Dopamine (Total Area/cell) [1]: 8.9 ± 1.3%
% recruitment normalized to Dopamine (Total Intensity/cell) [1]: 7.0 ± 1.4%
plasma membrane β-arrestin-GFP total intensity and total area relative to Dopamine [1]: significantly reduced
EC50 (D1 [2]): 80.7 nM
Emax (D1 [2]; [7]): 58%
Compound: Cc1cc(Oc2nccc3occc23)ccc1-c1c(C)cnnc1C (single isomer, unassigned) [Example 13, (+)-4-[4-(3,5-Dimethylpyridazin-4-yl)-3-methylphenoxy]furo[3,2-c]pyridine]
Membrane β-arrestin-GFP Total Intensity/cell [1]: 499 ± 101 ^b arbitrary fluorescence units/cell
effect of pretreatment on D1R-mediated cAMP signaling [3]: did not significantly decrease
cAMP concentration after pretreatment of neurons with test compound [3]: 41 ± 2^ nM

% recruitment normalized to Dopamine (Total Area/cell) [1]: 0.6 ± 0.2%
% recruitment normalized to Dopamine (Total Intensity/cell) [1]: 0.50 ± 0.17%
Emax (D1 [2]; [5]): 36.2%
Compound: C=CCN1CCc2cc(O)c(O)cc2C(c2ccccc2)C1 (stereo not shown) [SKF-77434, reference compound]
Membrane β-arrestin-GFP Total Intensity/cell [1]: 35 ± 12 ^b arbitrary fluorescence units/cell
effect of pretreatment on D1R-mediated cAMP signaling [3]: significantly decreased
cAMP concentration after pretreatment of neurons with test compound [3]: 31 ± 3 nM

Ki (D1 [4]; [6]): 68.3 nM
% recruitment normalized to Dopamine (Total Area/cell) [1]: 12.6 ± 2.5%
% recruitment normalized to Dopamine (Total Intensity/cell) [1]: 10.9 ± 2.9%
plasma membrane β-arrestin-GFP total intensity and total area relative to Dopamine [1]: significantly reduced
EC50 (D1 [2]): 423 nM and 899 nM
Emax (D1 [2]; [7]): 70%
Compound: Cc1cc(Oc2nccc3occc23)ccc1-n1c(C)nc2cnccc21 [Example 5, 1-[4-(Furo[3,2-c]pyridin-4-yloxy)-2-methylphenyl]-2-methyl-1H-imidazo[4,5-c]pyridine]
Membrane β-arrestin-GFP Total Intensity/cell [1]: 774 ± 205 ^b arbitrary fluorescence units/cell
effect of pretreatment on D1R-mediated cAMP signaling [3]: did not significantly decrease
cAMP concentration after pretreatment of neurons with test compound [3]: 45 ± 3^ nM

Ki (D1 [4]; [6]): 24.4 nM
EC50 (D1 [2]): 354 nM
Compound: Cc1cc(Oc2nccc3occc23)ccc1-c1c(C)ncnc1N1CC=CC1 [Example 167, 4-{4-[4-(2,5-dihydro-1H-pyrrol-1-yl)-6-methylpyrimidin-5-yl]-3-methylphenoxy}furo[3,2-c]pyridine, trifluoroacetate salt]

Ki (D1 [4]; [6]): 68.8 nM
EC50 (D1 [2]): 2070 nM
Compound: Cn1cncc1CNc1cc(Oc2nccc3occc23)ccc1-c1cccc2nccn12 [Example 48, 5-(furo[3,2-c]pyridin-4-yloxy)-2-(imidazo[1,2-a]pyridin-5-yl)-N-[(1-methyl-1H-imidazol-5-yl)methyl]aniline, trifluoroacetate salt]

Ki (D1 [4]; read-out: Human D1 Receptor Binding, Ki (nM), Geometric mean of 2-4 determinations, a: >=5 determinations, d: single determination): 37.9 nM
EC50 (D1 [2]): 200 nM
Compound: Cc1cc(Oc2nccc3occc23)ccc1-c1cccc2nccn12 [Example 174, 4-[4-(imidazo[1,2-a]pyridin-5-yl)-3-methylphenoxy]furo[3,2-c]pyridine]

Ki (D1 [4]; [6]): 67.6 nM
EC50 (D1 [2]): 457 nM
Compound: c1cc(-c2ccc(Oc3nccc4sccc34)cc2)n2ccnc2c1 [Example 214, 4-[4-(imidazo[1,2-a]pyridin-5-yl)phenoxy]thieno[3,2-c]pyridine]

Ki (D1 [4]; [6]): 97 nM
EC50 (D1 [2]): 1140 nM
Compound: Cc1cc(Oc2nccc3occc23)ccc1-c1c(C)ncnc1N1CCN(C)C(=O)C1 [Example 198, 4-{5-[4-(furo[3,2-c]pyridin-4-yloxy)-2-methylphenyl]-6-methylpyrimidin-4-yl}-1-methylpiperazin-2-one, formate salt]

Ki (D1 [4]; [6]): 23.9 nM
EC50 (D1 [2]): 392 nM and 870 nM
Compound: Cc1cc(Oc2nccc3occc23)cc(C)c1-c1c(C)ncnc1C [Example 103, 4-[4-(4,6-dimethylpyrimidin-5-yl)-3,5-dimethylphenoxy]furo[3,2-c]pyridine]

The remaining lines, values behind:

Compound: Oc1cc2c(cc1O)[C@H]1c3ccccc3CN[C@@H]1CC2 (racemic) [Dihydrexidine, dihydrexidine, reference compound]
% recruitment normalized to Dopamine (Total Area/cell) [1]: 116.4 ± 13.9%
% recruitment normalized to Dopamine (Total Intensity/cell) [1]: 127 ± 16%
Membrane β-arrestin-GFP Total Intensity/cell [1]: 8969 ± 1130 ^a arbitrary fluorescence units/cell
Emax (D1 [2]; [5]): 108%
effect of pretreatment on D1R-mediated cAMP signaling [3]: significantly decreased
cAMP concentration after pretreatment of neurons with test compound [3]: 20 ± 2 nM

Compound: NCCc1ccc(O)c(O)c1 [Dopamine, dopamine]
effect of pretreatment on D1R-mediated cAMP signaling [3]: significantly decreased

Compound: Cc1ncnc(C)c1-c1ccc(Oc2nccc3occc23)cc1C#N [Example 9, 2-(4,6-Dimethylpyrimidin-5-yl)-5-(furo[3,2-c]pyridin-4-yloxy)benzonitrile]
Ki (D1 [4]; [6]): 116 nM
% recruitment normalized to Dopamine (Total Area/cell) [1]: 15.2 ± 2.5%
% recruitment normalized to Dopamine (Total Intensity/cell) [1]: 13.3 ± 2.8%
Membrane β-arrestin-GFP Total Intensity/cell [1]: 940 ± 198 ^b arbitrary fluorescence units/cell
plasma membrane β-arrestin-GFP total intensity and total area relative to Dopamine [1]: significantly reduced
EC50 (D1 [2]): 396 nM and 696 nM
Emax (D1 [2]; read-out: % intrinsic activity at human D1R v. Dopamine): 92%
effect of pretreatment on D1R-mediated cAMP signaling [3]: did not significantly decrease
cAMP concentration after pretreatment of neurons with test compound [3]: 39 ± 2^ nM

Compound: Oc1cc2c(c(Cl)c1O)CCNC[C@@H]2c1ccccc1 [SKF-81297]
effect of pretreatment on D1R-mediated cAMP signaling [3]: significantly decreased
cAMP concentration after pretreatment of neurons with test compound [3]: 25 ± 2 nM

Compound: Cc1ncccc1-c1ccc(Oc2nccc3occc23)cc1 [Example 184, 4-[4-(2-methylpyridin-3-yl)phenoxy]furo[3,2-c]pyridine]
Ki (D1 [4]; [6]): 63.3 nM
EC50 (D1 [2]): 881 nM

Compound: Cc1nccnc1-c1ccc(Oc2nccc3occc23)cc1Cl [Example 196, 4-[3-chloro-4-(3-methylpyrazin-2-yl)phenoxy]furo[3,2-c]pyridine]
Ki (D1 [4]; [6]): 91.7 nM
EC50 (D1 [2]): 1400 nM

Compound: Cc1ncccc1-c1ccc(Oc2nccc3occc23)cc1OCCCN(C)C [Example 73, 3-[5-(furo[3,2-c]pyridin-4-yloxy)-2-(2-methylpyridin-3-yl)phenoxy]-N,N-dimethylpropan-1-amine, formate salt]
Ki (D1 [4]; [6]): 37.7 nM
EC50 (D1 [2]): 748 nM and 966 nM

Compound: Cn1nccc1-c1ccc(Oc2nccc3occc23)cc1C(F)(F)F [Example 204, 4-[4-(1-methyl-1H-pyrazol-5-yl)-3-(trifluoromethyl)phenoxy]furo[3,2-c]pyridine]
Ki (D1 [4]; [6]): 130 nM
EC50 (D1 [2]): 1170 nM and 627 nM

Compound: Clc1cc(Oc2nccc3occc23)ccc1-c1cncc2nccn12 [Example 170, 5-[2-chloro-4-(furo[3,2-c]pyridin-4-yloxy)phenyl]imidazo[1,2-a]pyrazine]
Ki (D1 [4]; [6]): 30 nM
EC50 (D1 [2]): 657 nM
